Measured values from patent publication US12480166B2, “Multiplexed fuel analysis” (ANDE Corporation, priority 2018, dated 2025).

Experiments:
[1] = tested on: filamentous fungi 18S, T3; assay: General 6-plex Fuel Assay (multiplexed PCR after centrifugation/DNaseI processing) of commercial fleet diesel samples before and after biocide treatment; assay type: cell-based; details: real-world diesel samples from commercial fleets, after vs before biocide treatment; FIG. 41
From the text: (§1) The approach relies in part on centrifugation to allow phase separation and to separate the intact microbial cells and cellular debris from the exposed, extracellular genomic DNA material. The extracellular material is then selectively degraded with addition of an enzyme, DNaseI. Note than DNA degradation enzymes in addition to DNAseI can be used in this approach-many such enzymes are available including restriction enzymes (particularly frequent cutters), other endonucleases, and exonucleases. DNA may also be degraded using physical methods.
(§2) Mock fuel samples were prepared by adding 200 μl of buffer (e.g. 1×PBS, or a preferred solution to prevent cells from lysing while providing an optimal chemical environment for downstream processing) to 800 μl of diesel fuel (previously determined to be negative for microbial contamination) and spiked with 500 ng of purified Bacillus DNA and live Pseudomonas cells (approximately […]). This allowed clear distinction between DNA present extracellularly and intracellularly. The resulting sample was mixed by multiple inversions and then subjected to centrifugation at 20,000×g for 2 minutes to pelletize the live Pseudomonas cells. […]
(§3) Biocide performance was also measured using an ATP assay for measurement of total microbial load. […]

general bacteria 16S,T1 = assay: as above; assay type: cell-based; details: real-world diesel samples from commercial fleets, after vs before biocide treatment; FIG. 41
From the text: as §1, §2, §3

## N#CSCSC#N [biocide, methylenebisthiocyanate]
[1]
  filamentous fungi 18S, T3 signal after biocide treatment: loss
General bacteria 16S,T1
  decline in general bacteria 16S,T1 signal after biocide treatment: approximately 75%
